Patent publication US6573262B2, “Composition and antiviral activity of substituted indoleoxoacetic piperazine derivatives” (priority 2000, dated 2003)

Tested on: HIV-1 single-round infectious reporter virus
Assay: microbe, parasite or virus in culture
Assay type: cell-based
Conditions: for EC50: Human immunodeficiency virus 1, HeLa-CD4/CCR5, 72 h, read-out: EC50 Group from Table 1; for inhibition at 10 µM: Human immunodeficiency virus 1, HeLa-CD4/CCR5, read-out: % Inhibition @ 10 uM

SMILES	EC50	inhibition at 10 µM
O=C(C(=O)N1CCN(C(=O)c2ccccc2)CC1)c1c[nH]c2c(-c3noc(NC4CC4)n3)ccc(F)c12 [Example 82]	< 1 µM	> 98%
O=C(C(=O)N1CCN(C(=O)c2cccc([N+](=O)[O-])c2)CC1)c1c[nH]c2c(-c3ncon3)ccc(F)c12 [Example 150A]	< 1 µM	–
COC(=O)Cc1nc(-c2ccc(F)c3c(C(=O)C(=O)N4CCN(C(=O)c5ccccc5)CC4)c[nH]c23)no1 [Example 98]	< 1 µM	–
CC(C)(C)OC(=O)N1CCN(C(=O)C(=O)c2c[nH]c3c(-c4ncon4)ccc(F)c23)CC1 [Example 122]	< 1 µM	–
CS(=O)(=O)NC(=O)c1ccc(F)c2c(C(=O)C(=O)N3CCN(C(=O)c4ccccc4)CC3)c[nH]c12 [Example 60]	< 1 µM	> 98%
O=C(O)Cn1nnc(-c2ccc(F)c3c(C(=O)C(=O)N4CCN(C(=O)c5ccccc5)CC4)c[nH]c23)n1 [Example 70]	< 1 µM	> 98%
O=C(C(=O)N1CCN(C(=O)c2ccccc2)CC1)c1c[nH]c2c(-c3noc(CCl)n3)ccc(F)c12 [Example 97]	< 1 µM	–
O=C(C(=O)N1CCN(C(=O)c2ccccc2)CC1)c1c[nH]c2c(-c3ncon3)ccc(F)c12 [Example 79]	< 1 µM	> 98%
O=C(C(=O)N1CCN(C(=O)c2ccccc2)CC1)c1c[nH]c2c(-c3nnn(Cc4ccccc4)n3)ccc(F)c12 [Example 25]	< 1 µM	> 98%
CNC(=O)c1ccc(F)c2c(C(=O)C(=O)N3CCN(C(=O)c4ccccc4)CC3)c[nH]c12 [Example 47]	< 1 µM	> 98%
COC(CNC(=O)c1ccc(F)c2c(C(=O)C(=O)N3CCN(C(=O)c4ccccc4)CC3)c[nH]c12)OC [Example 72]	< 1 µM	> 98%
Cn1nnc(-c2ccc(F)c3c(C(=O)C(=O)N4CCN(C(=O)c5ccccc5)CC4)c[nH]c23)n1 [Example 21]	< 1 µM	> 98%
CNC(=O)c1nc(-c2ccc(F)c3c(C(=O)C(=O)N4CCN(C(=O)c5ccccc5)CC4)c[nH]c23)no1 [Example 102]	< 1 µM	–
C[C@@H]1CN(C(=O)c2ccccc2)CCN1C(=O)C(=O)c1c[nH]c2c(-c3noc(=O)[nH]3)ccc(F)c12 [Example 176]	< 1 µM	–
O=C(C(=O)N1CCN(C(=O)c2ccccc2)CC1)c1c[nH]c2c(-c3nccs3)ccc(F)c12 [Example 14]	< 1 µM	> 98%
O=C(C(=O)N1CCN(C(=O)c2ccccc2)CC1)c1c[nH]c2c(-c3cccnc3)ccc(F)c12 [Example 6]	< 1 µM	> 98%
COC(=O)c1nc(-c2ccc(F)c3c(C(=O)C(=O)N4CCN(C(=O)c5ccccc5)C[C@H]4C)c[nH]c23)no1 [Example 182]	< 1 µM	–
O=C(NCc1ccccc1)c1ccc(F)c2c(C(=O)C(=O)N3CCN(C(=O)c4ccccc4)CC3)c[nH]c12 [Example 45]	< 1 µM	> 98%
O=C(C(=O)N1CCN(C(=O)c2ccccc2)CC1)c1c[nH]c2c(-c3ccccc3)ccc(F)c12 [Example 1]	< 1 µM	> 98%
C[C@@H]1CN(C(=O)c2ccccc2)CCN1C(=O)C(=O)c1c[nH]c2c(C(=O)N3CCN(Cc4ccccc4)CC3)cccc12 [Example 68]	< 1 µM	> 98%
Cc1cc(NC(=O)c2ccc(F)c3c(C(=O)C(=O)N4CCN(C(=O)c5ccccc5)CC4)c[nH]c23)on1 [Example 37]	< 1 µM	> 98%
O=C(C(=O)N1CCN(C(=O)c2ccccc2)CC1)c1c[nH]c2c(-n3cncn3)ccc(F)c12 [Example 118]	< 1 µM	–
C[C@@H]1CN(C(=O)c2ccccc2)CCN1C(=O)C(=O)c1c[nH]c2c(-c3noc(NC4CCCC4)n3)ccc(F)c12 [Example 162]	< 1 µM	–
O=C(C(=O)N1CCN(C(=O)c2ccccc2)CC1)c1c[nH]c2c(C(=O)Nc3nnn[nH]3)cccc12 [Example 63]	< 1 µM	96%
CSc1ccccc1-c1ccc(F)c2c(C(=O)C(=O)N3CCN(C(=O)c4ccccc4)CC3)c[nH]c12 [Example 2]	< 1 µM	> 98%
COC(=O)Cn1nnc(-c2ccc(F)c3c(C(=O)C(=O)N4CCN(C(=O)c5ccccc5)CC4)c[nH]c23)n1 [Example 22]	< 1 µM	> 98%

SMILES	EC50	inhibition at 10 µM
O=C(NCc1ccco1)c1ccc(F)c2c(C(=O)C(=O)N3CCN(C(=O)c4ccccc4)CC3)c[nH]c12 [Example 50]	< 1 µM	> 98%
CONC(=O)c1ccc(F)c2c(C(=O)C(=O)N3CCN(C(=O)c4ccccc4)CC3)c[nH]c12 [Example 46]	< 1 µM	> 98%
CCC(C)Nc1nc(-c2ccc(F)c3c(C(=O)C(=O)N4CCN(C(=O)c5ccccc5)C[C@H]4C)c[nH]c23)no1 (stereo partly shown) [Example 160]	< 1 µM	–
O=C(C(=O)N1CCN(C(=O)c2ccccc2)CC1)c1c[nH]c2c(-c3nc4cnccc4[nH]3)ccc(F)c12 [Example 164]	< 1 µM	–
NCCNC(=O)c1ccc(F)c2c(C(=O)C(=O)N3CCN(C(=O)c4ccccc4)CC3)c[nH]c12 [Example 154]	< 1 µM	–
COc1ccc(C(C)=O)c2[nH]cc(C(=O)C(=O)N3CCN(C(=O)c4ccccc4)CC3)c12 [Example 119]	< 1 µM	–
O=C(C(=O)N1CCN(C(=O)c2ccccc2)CC1)c1c[nH]c2c(-c3nc[nH]n3)ccc(F)c12 [Example 111]	< 1 µM	–
CC(=O)OCn1nnc(-c2ccc(F)c3c(C(=O)C(=O)N4CCN(C(=O)c5ccccc5)CC4)c[nH]c23)n1 [Example 108]	< 1 µM	–
C[C@@H]1CN(C(=O)c2ccccc2)CCN1C(=O)C(=O)c1c[nH]c2c(-c3noc(N)n3)ccc(F)c12 [Example 155]	< 1 µM	–
N=C(Nc1cccnc1N)c1ccc(F)c2c(C(=O)C(=O)N3CCN(C(=O)c4ccccc4)CC3)c[nH]c12 [Example 166]	< 1 µM	–
O=C(Nc1cccnc1)c1ccc(F)c2c(C(=O)C(=O)N3CCN(C(=O)c4ccccc4)CC3)c[nH]c12 [Example 35]	< 1 µM	> 98%
O=C(Nc1nc2ccccc2[nH]1)c1ccc(F)c2c(C(=O)C(=O)N3CCN(C(=O)c4ccccc4)CC3)c[nH]c12 [Example 41]	< 1 µM	> 98%
COc1ccc(-c2ncon2)c2[nH]cc(C(=O)C(=O)N3CCN(C(=O)c4ccccc4)CC3)c12 [Example 126]	< 1 µM	–
CCN(CC)CCn1nnc(-c2ccc(F)c3c(C(=O)C(=O)N4CCN(C(=O)c5ccccc5)CC4)c[nH]c23)n1 [Example 114]	< 1 µM	–
O=C(NCc1nc2ccccc2[nH]1)c1ccc(F)c2c(C(=O)C(=O)N3CCN(C(=O)c4ccccc4)CC3)c[nH]c12 [Example 53]	< 1 µM	–
COc1ccc(-c2nccs2)c2[nH]cc(C(=O)C(=O)N3CCN(C(=O)c4ccccc4)CC3)c12 [Example 15]	< 1 µM	> 98%
O=C(C(=O)N1CCN(C(=O)c2ccccc2)CC1)c1c[nH]c2c(-c3ccsc3)ccc(F)c12 [Example 13]	< 1 µM	> 98%
O=C(C(=O)N1CCN(C(=O)c2ccccc2)CC1)c1c[nH]c2c(-c3nnco3)ccc(F)c12 [Example 93]	< 1 µM	–
N/C(=N\O)c1ccc(F)c2c(C(=O)C(=O)N3CCN(C(=O)c4ccccn4)CC3)c[nH]c12 [Example 183]	< 1 µM	–
CNC(=O)c1ccc(OC)c2c(C(=O)C(=O)N3CCN(C(=O)c4ccccc4)CC3)c[nH]c12 [Example 125]	< 1 µM	–
C[C@@H]1CN(C(=O)c2ccccc2)CCN1C(=O)C(=O)c1c[nH]c2c(-c3noc(C4CC4)n3)ccc(F)c12 [Example 179]	< 1 µM	–
CN(C)c1nc(-c2ccc(F)c3c(C(=O)C(=O)N4CCN(C(=O)c5ccccc5)CC4)c[nH]c23)no1 [Example 156]	< 1 µM	–
O=C(C(=O)N1CCN(C(=O)c2ccccc2)CC1)c1c[nH]c2c(-c3nnn(CCO)n3)ccc(F)c12 [Example 112]	< 1 µM	–
NC(=O)c1ccc(F)c2c(C(=O)C(=O)N3CCN(C(=O)c4ccccc4)CC3)c[nH]c12 [Example 42]	< 1 µM	> 98%
COc1ccc(-c2ccco2)c2[nH]cc(C(=O)C(=O)N3CCN(C(=O)c4ccccc4)CC3)c12 [Example 11]	< 1 µM	> 98%
